Assay results from US9371331B2, “Modulators of methyl modifying enzymes, compositions and uses thereof” (Constellation Pharmaceuticals, Inc., priority 2012, dated 2016).
Like-named read-outs stand apart in the source and are kept apart here.

Key:
[1] = system: H3K27me3 mark in HeLa cells; assay: H3K27me3 MSD Hela Assay; format: cell-based; conditions: read-out: H3K27me3_MSD_HeLa_ (EC50)
Experimental: Trypsinized HeLa cells were counted and diluted in 10% DMEM (Life Technologies, Cat. #10569) to 5000 cells/75 μL. Seventy-five […] of cells were place in each well of a 96-well flat-bottomed plate and incubated at 37° C. for 4 hours. Twenty-five μL of test compound (at various concentrations) was added to the cells and incubation continued at 37° C. for 96 hours. Media was then removed and the cells rinsed once with ice cold PBS. Forty μL of ice-cold MSD Buffer AT (10 mM HEPES, pH 7.9, 5 mM MgCl2, 0.25M sucrose, Benzonase (1:10000), 1% Triton X-100 supplemented with fresh 1× Protease Inhibitor cocktail and 1 mM 4-(2-Aminoethyl)benzenesulfonyl fluoride hydrochloride (AEBSF)) was added to each well and the plates placed on ice for 30 minutes. Ten μL of 5M NaCl was then added to each well and incubation on ice continued for another 15 minutes. The material in each well was suspended pipetting up and down and then transferred to a new 96 well plate. The emptied wells were rinsed with 150 uL ice-cold 20 mM Tris pH 7.5, 1 mM EDTA, 1 mM EGTA, supplemented with fresh 1× Protease Inhibitor cocktail and 1 mM AEBSF (“NO salt NO detergent buffer) and transferred to the respective wells in the new plate. Three hundred μL of NO Salt NO detergent buffer was then added to each well of lysates and the plates frozen at −80° C.
On the same day, an appropriate number of MSD standard bind 96-well plates were coated with 30 μL/well of total H3 capture antibody (Millipore. Cat #MAB3422) at 1 μg/mL concentration in PBS. The antibody solution was evenly distributed first by tapping gently on the sides of the plates and then by shaking the plates for a few minutes at 1000 rpm. Antibody coated plates were stored at 4° C. overnight.
The next day the lysates are thawed to RT. The antibody coated MSD plates are washed 3× with TBS-T (Tris-buffered saline (Fisher Scientific, Cat #BP2471-1)+0.2% Tween-20). One-hundred fifty μL of 5% Blocker A in TBS-T is added to each well. The wells are covered and shaken on a shaker at RT for one hour. The Blocker A step is repeated a second time. After removing the blocker, 25 μL of cell lysate is transferred into each antibody coated well. The plates are shaken for 2 hours at RT, the lysate removed and the plates again washed with Blocker A in TBS-T. Twenty-five μL of appropriate freshly prepared antibody mix (including both primary and secondary antibodies) is added to each well and the plates shaken for 1 hour at RT.
Both H3 antibodies were obtained from Cell Signalling (Cat #s 4499 and 9733). The goat anti-rabbit antibody was obtained from Meso-Scale Discovery (Cat #R32AB-1).
The antibody mix was then removed and the wells washed with Blocker A. One hundred-fifty μL of freshly prepared 1×MSD Read Buffer (Meso-Scale Discovery; Cat #R927C-2) was then added to each well and the plates read on a MSD Sector 2400 Plate Reader.
Data was analyzed using Assay Assistant (Constellation Pharmaceuticals In-house product) and Activity Base (IDBS Ltd, Surrey, UK) template. Data files were imported to Assay Assistant and assay conditions were specified. A unique Analysis ID was created and the data files exported to Activity Base. An analysis template was created on Activity Base to measure dose-dependent inhibition of H3K27me3 mark and cell viability respectively. Readout of DMSO wells were used to normalize the data. Resulting curves were fitted using Activity base software Model 205 (IDBS Ltd. Surrey, UK). The data was checked for quality, validated and integrated in excel format using SARview (IDBS Ltd, Surrey, UK).

[2] = target: EZH2 (rPRC2) (Homo sapiens, UniProt Q15910); assay: EZH2 assay: rPRC2, biotinylated oligonucleosomes, 3H SAM methyl transfer (FlashPlate scintillation); format: biochemical; conditions: biotinylated oligonucleosome substrate
Chain of EZH2 (rPRC2) (Q15910 whole entry): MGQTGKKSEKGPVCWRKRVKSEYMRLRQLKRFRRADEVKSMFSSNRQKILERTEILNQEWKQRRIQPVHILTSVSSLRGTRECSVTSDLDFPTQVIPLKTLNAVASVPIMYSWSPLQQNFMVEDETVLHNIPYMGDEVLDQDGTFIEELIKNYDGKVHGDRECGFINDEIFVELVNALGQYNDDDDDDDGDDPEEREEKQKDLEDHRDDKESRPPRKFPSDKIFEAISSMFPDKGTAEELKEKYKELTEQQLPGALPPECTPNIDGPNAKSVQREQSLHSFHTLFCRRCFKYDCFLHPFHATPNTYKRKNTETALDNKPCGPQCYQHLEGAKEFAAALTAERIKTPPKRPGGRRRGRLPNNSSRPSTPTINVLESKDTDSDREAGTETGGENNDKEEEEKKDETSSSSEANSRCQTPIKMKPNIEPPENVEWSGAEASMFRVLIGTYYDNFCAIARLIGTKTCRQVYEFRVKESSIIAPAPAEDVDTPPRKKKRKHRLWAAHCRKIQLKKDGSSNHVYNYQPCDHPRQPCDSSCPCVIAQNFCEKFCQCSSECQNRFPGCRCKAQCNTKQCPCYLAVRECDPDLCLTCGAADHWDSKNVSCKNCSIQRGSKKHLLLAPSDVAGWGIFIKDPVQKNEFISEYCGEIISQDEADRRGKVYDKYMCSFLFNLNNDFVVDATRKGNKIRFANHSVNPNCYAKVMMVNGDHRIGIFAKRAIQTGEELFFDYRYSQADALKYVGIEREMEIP
Chain of EZH2 (rPRC2) (O75530 whole entry partner): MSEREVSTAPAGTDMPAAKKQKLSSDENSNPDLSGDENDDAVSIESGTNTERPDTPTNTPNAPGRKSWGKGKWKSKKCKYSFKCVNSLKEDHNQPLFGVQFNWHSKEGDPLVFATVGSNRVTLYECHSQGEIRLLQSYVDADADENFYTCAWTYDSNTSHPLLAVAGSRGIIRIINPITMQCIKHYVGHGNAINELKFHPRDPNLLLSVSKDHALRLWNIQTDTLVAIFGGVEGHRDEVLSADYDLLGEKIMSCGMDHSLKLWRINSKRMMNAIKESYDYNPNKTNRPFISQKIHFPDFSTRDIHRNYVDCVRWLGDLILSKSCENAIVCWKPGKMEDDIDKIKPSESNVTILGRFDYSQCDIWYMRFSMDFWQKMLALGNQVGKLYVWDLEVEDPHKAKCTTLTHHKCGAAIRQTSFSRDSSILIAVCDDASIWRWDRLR
Chain of EZH2 (rPRC2) (Q15022 whole entry partner): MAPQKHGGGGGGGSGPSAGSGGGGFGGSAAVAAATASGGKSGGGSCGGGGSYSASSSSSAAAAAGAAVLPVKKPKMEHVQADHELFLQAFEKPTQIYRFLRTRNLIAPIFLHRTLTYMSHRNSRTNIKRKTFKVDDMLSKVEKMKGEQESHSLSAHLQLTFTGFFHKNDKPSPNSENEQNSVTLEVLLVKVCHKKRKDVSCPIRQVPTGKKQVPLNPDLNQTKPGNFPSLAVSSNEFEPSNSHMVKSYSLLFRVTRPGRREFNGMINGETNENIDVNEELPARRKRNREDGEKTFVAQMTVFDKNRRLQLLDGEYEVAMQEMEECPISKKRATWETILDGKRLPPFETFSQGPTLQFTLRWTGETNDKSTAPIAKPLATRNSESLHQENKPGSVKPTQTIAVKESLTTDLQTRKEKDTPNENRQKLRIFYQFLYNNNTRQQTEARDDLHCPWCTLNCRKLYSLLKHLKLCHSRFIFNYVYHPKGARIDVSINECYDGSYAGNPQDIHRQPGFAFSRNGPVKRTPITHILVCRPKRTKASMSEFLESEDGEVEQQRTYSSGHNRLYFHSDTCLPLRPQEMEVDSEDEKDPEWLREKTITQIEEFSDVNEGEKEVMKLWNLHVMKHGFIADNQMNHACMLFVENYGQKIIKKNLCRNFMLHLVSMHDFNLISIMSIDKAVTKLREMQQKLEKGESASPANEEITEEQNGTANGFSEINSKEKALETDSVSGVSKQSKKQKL

[3] = target: Y641N EZH2 (Homo sapiens, UniProt Q15910, Y641N); assay: Y641N EZH2 assay: as EZH2 assay, with reconstituted H3K27Me2 oligonucleosomes as substrate; format: biochemical
Chain of Y641N EZH2 (Q15910 whole entry Y641N): as the sequence (Q15910 whole entry) above, with Y641N counted along it
Chain of Y641N EZH2 (O75530 whole entry partner): as the sequence (O75530 whole entry partner) above
Chain of Y641N EZH2 (Q15022 whole entry partner): as the sequence (Q15022 whole entry partner) above

[4] = Homo sapiens, HeLa cells, MSD, 96 hours
[5] = wild-type EZH2 (rPRC2), read-out: EZH2 IC50
[6] = Y641N mutant EZH2, H3K27Me2 oligonucleosome substrate, read-out: Y641N EZH2 IC50
[7] = EZH2 IC50, wild-type EZH2 (rPRC2)
[8] = Y641N EZH2 IC50, Y641N mutant EZH2, H3K27Me2 oligonucleosome substrate

Row | Compound | EC50 [1, 4] | IC50 [2, 5] | IC50 [3, 6] | EC50 ([1]; Homo sapiens, HeLa, 96 h) | IC50 [2, 7] | IC50 [3, 8] | EC50 ([1]; HeLa cells, MSD, 96 hours)
1 | COc1cc(C)[nH]c(=O)c1CNC(=O)c1c(C)n(C(C)c2cccc(C(N)=O)c2)c2ncccc12 (racemic) [Compound 242, (±)-1-(1-(3-carbamoylphenyl)ethyl)-N-((4-methoxy-6-methyl-2-oxo-1,2-dihydropyridin-3-yl)methyl)-2-methyl-1H-pyrrolo[2,3-b]pyridine-3-carboxamide] | 2000 to 10000 nM | < 100 nM | 100 to 1000 nM | – | – | – | –
2 | Cc1cc(C)c(CNC(=O)c2c(C)n(C(C)C3CC3)c3ncccc23)c(=O)[nH]1 (racemic) [Compound 211, (±)-1-(1-cyclopropylethyl)-N-((4,6-dimethyl-2-oxo-1,2-dihydropyridin-3-yl)methyl)-2-methyl-1H-pyrrolo[2,3-b]pyridine-3-carboxamide] | – | – | – | 400 to 2000 nM | < 100 nM | 100 to 1000 nM | –
3 | COCC(C)n1c(C)c(C(=O)NCc2c(OC)cc(C)[nH]c2=O)c2cc(F)ccc21 (racemic) [Compound 230, (±)-5-fluoro-N-((4-methoxy-6-methyl-2-oxo-1,2-dihydropyridin-3-yl)methyl)-1-(1-methoxypropan-2-yl)-2-methyl-1H-indole-3-carboxamide] | – | – | – | 400 to 2000 nM | < 100 nM | 100 to 1000 nM | –
4 | COCC(C)n1c(C)c(C(=O)NCc2c(OC)cc(C)[nH]c2=O)c2cccnc21 (racemic) [Compound 204, (±)-N-((4-methoxy-6-methyl-2-oxo-1,2-dihydropyridin-3-yl)methyl)-1-(1-methoxypropan-2-yl)-2-methyl-1H-pyrrolo[2,3-b]pyridine-3-carboxamide] | – | – | – | 400 to 2000 nM | < 100 nM | 100 to 1000 nM | –
5 | (±)-1-(1-(3-cyanophenyl)ethyl)-N-(4,6-dimethyl-2-oxo-1,2-dihydropyridin-3-yl)-2-methyl-1H-indole-3-carboxamide [Compound 175] | – | < 100 nM | < 100 nM | – | – | – | 400 to 2000 nM
6 | Cc1cc(C)c(CNC(=O)c2c(C)n([C@H](C)c3ccccc3)c3nc(N4CCNCC4)ncc23)c(O)n1 [Compound 169, (R)-N-((2-hydroxy-4,6-dimethylpyridin-3-yl)methyl)-6-methyl-7-(1-phenylethyl)-2-(piperazin-1-yl)-7H-pyrrolo[2,3-d]pyrimidine-5-carboxamide] | > 10000 nM | < 100 nM | 100 to 1000 nM | – | – | – | –
7 | COc1cc(C)[nH]c(=O)c1CNC(=O)c1c(C)n(C(C)C2(C)COC2)c2ccccc12 (racemic) [Compound 291] | – | – | – | 400 to 2000 nM | < 100 nM | 100 to 1000 nM | –
8 | Cc1cc(C)c(CNC(=O)c2c(C)n(C(C)c3cccc(S(C)(=O)=O)c3)c3ccccc23)c(=O)[nH]1 (racemic) [Compound 210, (±)-N-((4,6-dimethyl-2-oxo-1,2-dihydropyridin-3-yl)methyl)-2-methyl-1-(1-(3-(methylsulfonyl)phenyl)ethyl)-1H-indole-3-carboxamide] | – | – | – | 2000 to 10000 nM | < 100 nM | 100 to 1000 nM | –
9 | Cc1cc(C)c(COC(=O)c2c(C)n(C3CCc4ccccc43)c3ncccc23)c(=O)[nH]1 (racemic) [Compound 201, (±)-(4,6-dimethyl-2-oxo-1,2-dihydropyridin-3-yl)methyl 1-(2,3-dihydro-1H-inden-1-yl)-2-methyl-1H-pyrrolo[2,3-b]pyridine-3-carboxylate] | 400 to 2000 nM | < 100 nM | 100 to 1000 nM | – | – | – | –
10 | Cc1cc(C)c(CNC(=O)c2c(C)n(C(C)c3ccccc3)c3cnccc23)c(=O)[nH]1 (racemic) [Compound 203, (±)-N-((4,6-dimethyl-2-oxo-1,2-dihydropyridin-3-yl)methyl)-2-methyl-1-(1-phenylethyl)-1H-pyrrolo[2,3-c]pyridine-3-carboxamide] | – | – | – | 2000 to 10000 nM | < 100 nM | 100 to 1000 nM | –
11 | COCC(C)n1c(C)c(C(=O)NCc2c(C)cc(C)[nH]c2=O)c2scnc21 (racemic) [Compound 254, (±)-N-((4,6-dimethyl-2-oxo-1,2-dihydropyridin-3-yl)methyl)-4-(1-methoxypropan-2-yl)-5-methyl-4H-pyrrolo[2,3-d]thiazole-6-carboxamide] | 2000 to 10000 nM | 100 to 1000 nM | 100 to 1000 nM | – | – | – | –
